Assay results as given in patent publication US12630535B2, “Inhibitors of ACK1/TNK2 tyrosine kinase” (H. LEE MOFFITT CANCER CENTER AND RESEARCH INSTITUTE, INC., priority 2020, dated 2026).

Tests used:
ACK1 [1] = biological target: T1, ACK1 (Homo sapiens, UniProt Q07912); assay: ACK1 IC50 (Table 1); type: biochemical
ACK1 [2] = biological target: T1, ACK1; assay: Reaction Biology 33P Hotspot assay; type: biochemical
[3] = tested on: AKT Tyr176 phosphorylation; conditions: pancreatic cancer cells; cited from earlier work
[4] = tested on: AR Tyr267 phosphorylation; conditions: cited from earlier work
[5] = tested on: castration and radioresistant prostate xenograft tumor; conditions: cited from earlier work
ACK1 [6] = biological target: T1, ACK1; assay: ACK1 ELISA; type: biochemical; conditions: read-out: ACK1 ELISA % Inhibition at 100 nM
A549 lung cancer cell = conditions: 10 μM; cited from earlier work
[7] = tested on: ACK1 autophosphorylation (Tyr284); conditions: HEK293 cells, 2 μM; cited from earlier work
[8] = mouse models; cited from earlier work
[9] = tested on: ACK1 in NCI-H1703 human non-small cell lung cancer cells; conditions: read-out: IC50 for ACK1 inhibition in NCI-H1703 cells (ELISA); cited from earlier work

T1 sequence (Q07912 whole entry): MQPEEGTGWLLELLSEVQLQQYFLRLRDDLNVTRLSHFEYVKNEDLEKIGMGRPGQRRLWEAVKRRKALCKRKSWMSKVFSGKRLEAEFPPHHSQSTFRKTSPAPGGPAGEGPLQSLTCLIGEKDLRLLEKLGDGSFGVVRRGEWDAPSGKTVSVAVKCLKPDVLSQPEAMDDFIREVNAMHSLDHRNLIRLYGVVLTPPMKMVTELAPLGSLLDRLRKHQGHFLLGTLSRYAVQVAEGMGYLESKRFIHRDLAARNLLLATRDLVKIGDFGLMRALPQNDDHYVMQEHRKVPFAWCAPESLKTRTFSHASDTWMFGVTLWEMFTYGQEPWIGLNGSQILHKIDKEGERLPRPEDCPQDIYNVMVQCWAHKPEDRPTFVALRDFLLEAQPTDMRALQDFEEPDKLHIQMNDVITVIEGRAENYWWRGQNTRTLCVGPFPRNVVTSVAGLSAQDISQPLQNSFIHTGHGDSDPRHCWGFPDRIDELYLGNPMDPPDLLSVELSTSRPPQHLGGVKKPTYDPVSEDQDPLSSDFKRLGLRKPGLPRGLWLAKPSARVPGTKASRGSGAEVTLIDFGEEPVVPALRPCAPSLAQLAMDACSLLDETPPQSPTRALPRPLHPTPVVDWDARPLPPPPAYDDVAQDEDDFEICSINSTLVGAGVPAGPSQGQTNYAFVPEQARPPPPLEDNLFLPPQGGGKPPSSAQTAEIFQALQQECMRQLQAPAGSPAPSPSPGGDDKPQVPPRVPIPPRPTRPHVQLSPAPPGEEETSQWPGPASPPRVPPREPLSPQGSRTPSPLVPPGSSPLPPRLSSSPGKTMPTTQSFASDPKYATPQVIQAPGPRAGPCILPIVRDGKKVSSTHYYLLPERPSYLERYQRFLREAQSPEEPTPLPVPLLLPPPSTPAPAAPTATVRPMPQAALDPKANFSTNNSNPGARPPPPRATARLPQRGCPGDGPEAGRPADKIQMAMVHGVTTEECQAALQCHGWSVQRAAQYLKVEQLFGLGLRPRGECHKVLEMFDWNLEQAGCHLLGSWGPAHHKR

IC50 (ACK1 [1]) [nM]	IC50 (ACK1 [2]) [nM]	SMILES	also measured
20.5	–	CN1CCN(c2ccc(Nc3ncc(Cl)c(NCC4CCOCC4)n3)cc2)CC1 [5-chloro-N^2-(4-(4-methylpiperazin-1-yl)phenyl)-N^4-((tetrahydro-2H-pyran-4-yl)methyl)pyrimidine-2,4-diamine]	–
–	167	CC(C)OCc1cc(Nc2ncc(Cl)c(NC[C@H]3CCCO3)n2)ccc1N1CCN(C)CC1 [(R)-5-chloro-N^2-(3-(isopropoxymethyl)-4-(4-methylpiperazin-1-yl)phenyl)-N^4-((tetrahydrofuran-2-yl)methyl)pyrimidine-2,4-diamine]	–
–	112	CN1CCN(c2ccc(Nc3ncc(Cl)c(NC[C@H]4CCCO4)n3)cc2C#N)CC1	–
14.9	–	COc1cc(N2CCN(C)CC2)ccc1Nc1ncc(Cl)c(NCC2CCOCC2)n1 [5-chloro-N^2-(2-methoxy-4-(4-methylpiperazin-1-yl)phenyl)-N^4-((tetrahydro-2H-pyran-4-yl)methyl)pyrimidine-2,4-diamine]	–
–	17.3	COc1cc(N2CCN(C(C)=O)CC2)ccc1Nc1ncc(Cl)c(NCC2CCOCC2)n1 [1-(4-(4-((5-chloro-4-(((tetrahydro-2H-pyran-4-yl)methyl)amino)pyrimidin-2-yl)amino)-3-methoxyphenyl)piperazin-1-yl)ethan-1-one]	–
39.5	–	CN1CCC(c2ccc(Nc3ncc(Cl)c(NCC4CCOCC4)n3)cc2)CC1 [5-chloro-N^2-(4-(1-methylpiperidin-4-yl)phenyl)-N^4-((tetrahydro-2H-pyran-4-yl)methyl)pyrimidine-2,4-diamine]	–
–	–	CN1CCC(c2ccc(Nc3ncc(Cl)c(NCC4CCOCC4)n3)cc2F)CC1 [5-chloro-N^2-(3-fluoro-4-(1-methylpiperidin-4-yl)phenyl)-N^4-((tetrahydro-2H-pyran-4-yl)methyl)pyrimidine-2,4-diamine]	IC50 (ACK1 [1]; unit inferred): 35.9 nM
–	9.87	CC(=O)N1CCN(c2ccc(Nc3ncc(Cl)c(NCC4CCOCC4)n3)cc2OC(C)C)CC1 [1-(4-(4-((5-chloro-4-(((tetrahydro-2H-pyran-4-yl)methyl)amino)pyrimidin-2-yl)amino)-2-isopropoxyphenyl)piperazin-1-yl)ethan-1-one]	–
44.7	–	CN1CCC(c2cc(F)c(Nc3ncc(Cl)c(NC[C@H]4CCCO4)n3)cc2F)CC1 [(R)-5-chloro-N^2-(2,5-difluoro-4-(1-methylpiperidin-4-yl)phenyl)-N^4-((tetrahydrofuran-2-yl)methyl)pyrimidine-2,4-diamine]	–
20.2	–	COc1cc(C2CCN(C)CC2)ccc1Nc1ncc(Cl)c(NCC2CCOCC2)n1 [5-chloro-N^2-(2-methoxy-4-(1-methylpiperidin-4-yl)phenyl)-N^4-((tetrahydro-2H-pyran-4-yl)methyl)pyrimidine-2,4-diamine]	–
–	–	c1ccc(-c2oc3ncnc(NC[C@@H]4CCCO4)c3c2-c2ccccc2)cc1 [Compound 1b]	ACK1 dependent AKT Tyr176 phosphorylation [3]: inhibits; AR Tyr267 phosphorylation [4]: inhibits; xenograft tumor growth [5]: inhibits
–	198	COCCOCc1cc(Nc2ncc(Cl)c(NC[C@H]3CCCO3)n2)ccc1N1CCN(C)CC1 [(R)-5-chloro-N^2-(3-((2-methoxyethoxy)methyl)-4-(4-methylpiperazin-1-yl)phenyl)-N^4-((tetrahydrofuran-2-yl)methyl)pyrimidine-2,4-diamine]	–
43.9	–	COc1cc(N2CCN(C)CC2)ccc1Nc1ncc(Cl)c(NCc2ccc(F)cc2)n1 [5-chloro-N^4-(4-fluorobenzyl)-N^2-(2-methoxy-4-(4-methylpiperazin-1-yl)phenyl)pyrimidine-2,4-diamine]	inhibition at 0.1 µM (ACK1 [6]): 91.2%
19.8	–	CN1CCN(c2ccc(Nc3ncc(Cl)c(NCC4CCOCC4)n3)cc2F)CC1 [5-chloro-N^2-(3-fluoro-4-(4-methylpiperazin-1-yl)phenyl)-N^4-((tetrahydro-2H-pyran-4-yl)methyl)pyrimidine-2,4-diamine]	–
50.8	–	COc1cc(N2CCN(C)CC2)ccc1Nc1ncc(Cl)c(NCc2ccc(C)cc2)n1 [5-chloro-N^2-(2-methoxy-4-(4-methylpiperazin-1-yl)phenyl)-N^4-(4-methylbenzyl)pyrimidine-2,4-diamine]	inhibition at 0.1 µM (ACK1 [6]): 77.6%
35.6	–	CN1CCN(c2ccc(Nc3ncc(Cl)c(NCc4ccc(F)cc4)n3)cc2)CC1 [5-chloro-N^4-(4-fluorobenzyl)-N^2-(4-(4-methylpiperazin-1-yl)phenyl)pyrimidine-2,4-diamine]	inhibition at 0.1 µM (ACK1 [6]): 94%

IC50 (ACK1 [1]) [nM]	IC50 (ACK1 [2]) [nM]	SMILES	also measured
–	87.9	COc1c(Nc2ncc(Cl)c(NCC3CCOCC3)n2)ccc(N2CCN(C)CC2)c1F [5-chloro-N^2-(3-fluoro-2-methoxy-4-(4-methylpiperazin-1-yl)phenyl)-N^4-((tetrahydro-2H-pyran-4-yl)methyl)pyrimidine-2,4-diamine]	–
–	51	CN1CCN(c2ccc(Nc3ncc(Cl)c(NC[C@H]4CCCO4)n3)cc2CO)CC1	–
–	–	COc1cc(N2CCN(C)CC2)ccc1Nc1ncc2c(n1)N(C)c1ccccc1C(=O)N2 [Compound 3]	A549 lung cancer cell growth (A549 lung cancer cell): inhibits; EGF induced ACK1 autophosphorylation (Tyr284) [7]: abolishes
–	26.6	CC(=O)N1CCN(c2ccc(Nc3ncc(Cl)c(NCC4CCOCC4)n3)cc2)CC1 [1-(4-(4-((5-chloro-4-(((tetrahydro-2H-pyran-4-yl)methyl)amino)pyrimidin-2-yl)amino)phenyl)piperazin-1-yl)ethan-1-one]	–
–	–	COc1cc(Oc2ccccc2)ccc1-c1nc(C2CC(C)(O)C2)n2ccnc(N)c12 (centres unmarked) [Compound 4]	oral bioavailability [8]: orally bioavailable; IC50 [9]: 35 nM
85.3	–	Cc1cc(Nc2ncc(Cl)c(NC[C@H]3CCCO3)n2)c(F)cc1C1CCN(C)CC1 [(R)-5-chloro-N^2-(2-fluoro-5-methyl-4-(1-methylpiperidin-4-yl)phenyl)-N^4-((tetrahydrofuran-2-yl)methyl)pyrimidine-2,4-diamine]	–
–	62	CC(C)Oc1cc(Nc2ncc(Cl)c(NC[C@H]3CCCO3)n2)ccc1C1CCN(C)CC1 [(R)-5-chloro-N^2-(3-isopropoxy-4-(1-methylpiperidin-4-yl)phenyl)-N^4-((tetrahydrofuran-2-yl)methyl)pyrimidine-2,4-diamine]	–
70.1	–	COc1cc(N2CCN(C)CC2)ccc1Nc1ncc(Cl)c(NCc2ccc(Cl)cc2Cl)n1 [5-chloro-N^4-(2,4-dichlorobenzyl)-N^2-(2-methoxy-4-(4-methylpiperazin-1-yl)phenyl)pyrimidine-2,4-diamine]	inhibition at 0.1 µM (ACK1 [6]): 78.1%
48.2	–	COc1cc(N2CCN(C)CC2)ccc1Nc1ncc(Cl)c(NCc2ccccc2)n1 [N^4-benzyl-5-chloro-N^2-(2-methoxy-4-(4-methylpiperazin-1-yl)phenyl)pyrimidine-2,4-diamine]	inhibition at 0.1 µM (ACK1 [6]): 98.2%
–	87.2	COc1cc(Nc2ncc(Cl)c(NC[C@H]3CCCO3)n2)ccc1C1CCN(C)CC1 [(R)-5-chloro-N^2-(3-methoxy-4-(1-methylpiperidin-4-yl)phenyl)-N^4-((tetrahydrofuran-2-yl)methyl)pyrimidine-2,4-diamine]	–
–	145	CN1CCN(Cc2ccc(Nc3ncc(Cl)c(NCC4CCCO4)n3)cc2)CC1 (centres unmarked) [5-chloro-N^2-(4-((4-methylpiperazin-1-yl)methyl)phenyl)-N^4-((tetrahydrofuran-2-yl)methyl)pyrimidine-2,4-diamine]	–
–	11.9	COc1cc(N2CCN(C)CC2)c(F)cc1Nc1ncc(Cl)c(NCC2CCOCC2)n1 [5-chloro-N^2-(5-fluoro-2-methoxy-4-(4-methylpiperazin-1-yl)phenyl)-N4-((tetrahydro-2H-pyran-4-yl)methyl)pyrimidine-2,4-diamine]	–
–	–	COc1cc(N2CCN(C)CC2)ccc1Nc1ncc(Cl)c(NCc2ccc(Cl)cc2)n1 [5-chloro-N^4-(4-chlorobenzyl)-N^2-(2-methoxy-4-(4-methylpiperazin-1-yl)phenyl)pyrimidine-2,4-diamine]	inhibition at 0.1 µM (ACK1 [6]): 67.9%
82.9	–	COc1ccc(CNc2nc(Nc3ccc(N4CCN(C)CC4)cc3OC)ncc2Cl)cc1 [5-chloro-N^2-(2-methoxy-4-(4-methylpiperazin-1-yl)phenyl)-N^4-(4-methoxybenzyl)pyrimidine-2,4-diamine]	inhibition at 0.1 µM (ACK1 [6]): 70.3%
–	88	CN1CCN(c2cccc(Nc3ncc(Cl)c(NC[C@H]4CCCO4)n3)c2)CC1 [(R)-5-chloro-N^2-(3-(4-methylpiperazin-1-yl)phenyl)-N^4-((tetrahydrofuran-2-yl)methyl)pyrimidine-2,4-diamine]	–
